Tests used:
Spätphaseneosinophile = test: inhibition of late-phase eosinophils in guinea pigs (Cartwright; eosinophil counting); assay type: in vivo, Meerschweinchen; details: 30 mg pro Kilogramm Körpergewicht, p.o.
Experimental: (§1) Die Verbindung gemäß Beispiel 16 zeigt im Versuch der Hemmung der Spätphaseneosinophile in Meerschweinchen gemäß der Vorschrift von Cartwright, Diagnostic Laboratory Hematology, 1968, S. 48 und Mac Fortare et al, Eosinophil Counting, Brit. Med. 9., 2, 1187 (1951) in der Dosis von 30 mg pro Kilogramm Körpergewicht, gegeben p.o., einen Hemmwert von 80 %. Bei der Hemmung der LTD-4-Rezeptor-Bindung gemäß Borbe und Zierenberg, Pharmacopsychiatry 18, 314 319 (1985) ergab sich eine Hemmung von 50 % der Aktivität bei einer Konzentration von 7,4 µmol/l.

LTD-4-Rezeptor = target: T1, LTD-4-Rezeptor (Homo sapiens, UniProt Q9Y271); test: inhibition of LTD-4 receptor binding (Borbe and Zierenberg); details: read-out: Hemmung von 50 % der Aktivität bei einer Konzentration von
T1 sequence (Q9Y271 1-337): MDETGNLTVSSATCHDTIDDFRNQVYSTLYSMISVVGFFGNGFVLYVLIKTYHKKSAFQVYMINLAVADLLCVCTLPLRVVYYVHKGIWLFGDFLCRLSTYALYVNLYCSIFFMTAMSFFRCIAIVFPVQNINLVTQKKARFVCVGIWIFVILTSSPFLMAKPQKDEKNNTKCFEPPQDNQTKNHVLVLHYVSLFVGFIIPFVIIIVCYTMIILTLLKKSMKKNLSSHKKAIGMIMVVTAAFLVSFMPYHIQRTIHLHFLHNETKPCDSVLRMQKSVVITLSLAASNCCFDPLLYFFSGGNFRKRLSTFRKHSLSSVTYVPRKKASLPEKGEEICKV
Experimental: as §1

[1] = test system: Histamin-Freisetzung aus Mastzellen; test: allergically induced histamine release (sensitised rats, method of Shore et al.); assay type: cell-based, Ratten; details: Mast cell, concentration 10 µmol/l, read-out: Hemmung der Freisetzung
Excerpt: Die pharmakologische Testung auf Wirksamkeit bei der allergisch induzierten Histaminfreisetzung an sensibilisierten Ratten erfolgte gemäß der Versuchsvorschrift von P.A. Shore et al., I. Pharmacol. Exp. Ther., 127 (1959), S. 182.
Die Verbindung gemäß gemaß Beispiel 1 zeigt folgende Werte: Bei der allergisch induzierten Histamin-Freisetzung ergibt ein Konzentration 10 µmol/l eine 25 % - Hemmung der Freisetzung.

IC50 (LTD-4-Rezeptor) | Compound | Hemmwert (Spätphaseneosinophile) | inhibition at 10 µM [1]
7.4 µM | CN1CC(=O)NN=C1c1ccc(OCc2ccc3ccccc3n2)c(Cl)c1 [Beispiel 16, 3-{3-Chlor-4-[(2-chinolyl)methoxy]phenyl}-4-methyl-4,5-dihydro-1,2,4-triazin-6-on] | 80% | 
 | O=C1CN2N=C(c3ccccc3)c3ccccc3C2=NN1 [Beispiel 1, 7-Phenyl-2H-triazino(3,4a)phthalazin-3(4H)-on] |  | 25%

— patent EP0599152A1, “Triazinones and Triazinophthalazinones possessing antiasthmatic/antiallergic, positive inotropic and antihypertensive activities” (ASTA Medica Aktiengesellschaft, priority 1992, dated 1994)
